In ChEMBL document CHEMBL3885861, “Open TG-GATES”:

Species: Rattus norvegicus
Assay: Open TG-GATES - Regimen: Single
Type: toxicity, organism-based, Sprague-Dawley
Parameters: regimen Single, gender Male, age 6 weeks
Details: in vivo, iv, route intravenous injection; for APTT / Bas / Eos / Fbg / Lym / MCHC / MCV / Mono / Neu / Plat / RBC / Ret / WBC / Ht / PT / Hb: tissue Blood; for KIDNEY_L / KIDNEY_R / KIDNEY_TOTAL: tissue Kidney; for LIVER: tissue Liver
[1] = 0 mg/kg, 3 h, dose level Control
[2] = 0 mg/kg, 3 h, tissue Plasma, dose level Control
[3] = 0 mg/kg, 6 h, dose level Control
[4] = 0 mg/kg, 6 h, tissue Plasma, dose level Control
[5] = 0 mg/kg, 9 h, dose level Control
[6] = 0 mg/kg, 9 h, tissue Plasma, dose level Control
[7] = 0 mg/kg, 24 h, dose level Control
[8] = 0 mg/kg, 24 h, tissue Plasma, dose level Control

GENTAMICIN was tested, and the TERMINAL_BW [1] was 212.9 g, the APTT [1] was 22 s and the Bas [1] was 0%. For the same sequence, the Eos [1] was 0.8%, the Fbg [1] was 293.2 mg/dL and the Lym [1] was 79.6%. The MCHC [1] was 33.9%, the MCV [1] was 61.4 fL and the Mono [1] was 2.8%. For the same sequence, the Neu [1] was 16%, the Plat [1] was 119.4 x10_4/uL and the RBC [1] was 631.2 x10_4/ul. It also gave a Ret [1] of 6.4%, a WBC [1] of 123.3 x10_2/uL and a KIDNEY_L [1] of 0.9 g. For the same sequence, the KIDNEY_R [1] was 0.9 g, the KIDNEY_TOTAL [1] was 1.9 g and the LIVER [1] was 9.3 g. It also gave an ALP [2] of 1296.6 IU/L, an ALT [2] of 39.2 IU/L and an AST [2] of 70.6 IU/L. The CRE [2] was 0.2 mg/dL, the DBIL [2] was 0 mg/dL and the GLC [2] was 187.4 mg/dL. It also gave an IP [2] of 7.4 mg/dL, a K [2] of 4.4 meq/L and an LDH [2] of 165.6 IU/L. It also gave a PL [2] of 121.4 mg/dL, an RALB [2] of 2.9 g/dL and a TBIL [2] of 0.022 mg/dL. For the same sequence, the TC [2] was 63.6 mg/dL, the TG [2] was 71 mg/dL and the TP [2] was 5.3 g/dL. For the same sequence, the gamma-GTP [2] was 1.2 IU/L, the TERMINAL_BW [3] was 209.6 g and the APTT [3] was 23.6 s. The Bas [3] was 0%, the Eos [3] was 0.6% and the Fbg [3] was 270.6 mg/dL. For the same sequence, the Ht [3] was 39.7%, the MCHC [3] was 33.6% and the Mono [3] was 2.6%. It also gave a PT [3] of 16.4 s, a Plat [3] of 119.5 x10_4/uL and an RBC [3] of 629 x10_4/ul. The Ret [3] was 7%, the WBC [3] was 123.2 x10_2/uL and the KIDNEY_L [3] was 0.9 g. The KIDNEY_R [3] was 0.9 g, the KIDNEY_TOTAL [3] was 1.8 g and the LIVER [3] was 8.7 g. For the same sequence, the ALP [4] was 1253 IU/L, the ALT [4] was 36.6 IU/L and the AST [4] was 70.2 IU/L. The BUN [4] was 11.2 mg/dL, the CRE [4] was 0.2 mg/dL and the DBIL [4] was 0 mg/dL. It also gave an IP [4] of 8.3 mg/dL, a K [4] of 4.4 meq/L and an LDH [4] of 199.6 IU/L. The RALB [4] was 2.9 g/dL, the TBIL [4] was 0.018 mg/dL and the TC [4] was 74 mg/dL. For the same sequence, the TG [4] was 75 mg/dL, the TP [4] was 5.3 g/dL and the gamma-GTP [4] was 1.2 IU/L. For the same sequence, the APTT [5] was 22.8 s, the Bas [5] was 0% and the Eos [5] was 1%. It also gave a Fbg [5] of 313.6 mg/dL, a Hb [5] of 12.9 g/dL and a Ht [5] of 38.5%. For the same sequence, the Lym [5] was 82%, the MCHC [5] was 33.5% and the MCV [5] was 61.2 fL. For the same sequence, the Mono [5] was 2.6%, the PT [5] was 16 s and the Plat [5] was 124.4 x10_4/uL. It also gave an RBC [5] of 628 x10_4/ul, a Ret [5] of 6.9% and a WBC [5] of 82.5 x10_2/uL. It also gave a KIDNEY_L [5] of 0.9 g, a KIDNEY_R [5] of 0.9 g and a KIDNEY_TOTAL [5] of 1.8 g. The LIVER [5] was 8.3 g, the ALP [6] was 1527.6 IU/L and the ALT [6] was 36.4 IU/L. For the same sequence, the AST [6] was 67.4 IU/L, the CRE [6] was 0.2 mg/dL and the DBIL [6] was 0 mg/dL. The GLC [6] was 199.2 mg/dL, the IP [6] was 9.5 mg/dL and the K [6] was 4.1 meq/L. For the same sequence, the LDH [6] was 131.6 IU/L, the PL [6] was 126.2 mg/dL and the RALB [6] was 2.9 g/dL. It also gave a TBIL [6] of 0.022 mg/dL, a TG [6] of 38.2 mg/dL and a TP [6] of 5.4 g/dL. The gamma-GTP [6] was 1.2 IU/L, the TERMINAL_BW [7] was 228.2 g and the APTT [7] was 23.4 s. It also gave a Bas [7] of 0%, an Eos [7] of 1% and a Fbg [7] of 293.6 mg/dL. It also gave a Ht [7] of 38.2%, an MCHC [7] of 34.3% and an MCV [7] of 61.9 fL. The Mono [7] was 2.6%, the Neu [7] was 16% and the Plat [7] was 125.4 x10_4/uL. The RBC [7] was 618.6 x10_4/ul, the Ret [7] was 5.8% and the WBC [7] was 109.8 x10_2/uL. It also gave a KIDNEY_L [7] of 1 g, a KIDNEY_R [7] of 1 g and a KIDNEY_TOTAL [7] of 2 g. For the same sequence, the ALP [8] was 1416.8 IU/L, the AST [8] was 71.6 IU/L and the BUN [8] was 15 mg/dL. The CRE [8] was 0.2 mg/dL, the DBIL [8] was 0 mg/dL and the IP [8] was 6.9 mg/dL. The K [8] was 4.4 meq/L, the LDH [8] was 156.8 IU/L and the Na [8] was 140.4 meq/L. For the same sequence, the PL [8] was 138.2 mg/dL, the RALB [8] was 3 g/dL and the TBIL [8] was 0.012 mg/dL. The TC [8] was 68.4 mg/dL, the TG [8] was 114.4 mg/dL and the TP [8] was 5.4 g/dL. For the same sequence, the gamma-GTP [8] was 1.4 IU/L, the TERMINAL_BW (10 mg/kg, 3 h, dose level Low) was 211.7 g and the APTT (10 mg/kg, 3 h, dose level Low) was 22.2 s. It also gave a Bas (10 mg/kg, 3 h, dose level Low) of 0%, an Eos (10 mg/kg, 3 h, dose level Low) of 0.2% and a Fbg (10 mg/kg, 3 h, dose level Low) of 301.8 mg/dL. The Hb (10 mg/kg, 3 h, dose level Low) was 13 g/dL and the Ht (10 mg/kg, 3 h, dose level Low) was 38.1%.
